Experimental findings from ChEMBL document CHEMBL3244349, “5,6,7,8-Tetrahydroguinolines. 4. Antiulcer and antisecretory activity of 5,6,7,8-tetrahydroquinolinenitriles and -thioamides” (1977) are described below.

Each structure is given as a SMILES string. The source made the active and inactive calls. The rule behind the calls is not given here.

For experiment [1], the system named is Rattus norvegicus. As to the kind of experiment: Antiulcer activity in po dosed Sprague-Dawley rat assessed as dose required to inhibition of cold-restraint induced gastric erosions after 3 hrs. The experiment is classed as functional, Stomach.
Experiment [2] has as its system Rattus norvegicus. As to the kind of experiment: Antisecretory activity in four-hours pylorus-ligated Sprague-Dawley rat assessed as inhibition of basal gastric secretion at 30 mg/kg administered intraduodenally. The experiment is classed as functional. The following applies: Stomach; for inhibition in vivo at 30 mg/kg: 4 h, route intraduodenal.
Experiment [3] relates to Rattus norvegicus. As to the kind of experiment: Antisecretory activity in four-hours pylorus-ligated Sprague-Dawley rat assessed as inhibition of basal gastric secretion at 10 mg/kg administered intraduodenally. The experiment is classed as functional, organism-based. On the set-up: dose 10 mg/kg. The following applies: Stomach.

The inhibition in vivo is the share of the control response that was lost under treatment.

`Cc1cnc2c(c1)CCCC2C(=S)N(C)C` (centres undefined): the “Effective oral dose inhibiting gastric erosions” value in the experiment on Rattus norvegicus [1] came to 100 mg/kg. Moreover, the inhibition result in the experiment with Rattus norvegicus [2] was “inactive”.

For `Cc1cnc2c(c1)CCCC2C1=NCCCN1.Cl` (centres undefined), the “Effective oral dose inhibiting gastric erosions” value with Rattus norvegicus [1] is 100 mg/kg. Also, the inhibition result in the experiment with Rattus norvegicus [2] is “inactive”. Take `Cc1cc2c([n+]([O-])c1)C(C#N)CCC2` (centres undefined): the “Effective oral dose inhibiting gastric erosions” value in the experiment on Rattus norvegicus [1] is 100 mg/kg. In addition, in the experiment on Rattus norvegicus [2], the inhibition result is “inactive”.

In the case of `Cc1ccnc2c1CCCC2C(N)=S.Cl` (centres undefined), the “Effective oral dose inhibiting gastric erosions” value with Rattus norvegicus [1] came out at 30 mg/kg. Further, the inhibition entry in the experiment on Rattus norvegicus [3] was “Active”. Take `Cc1cnc2c(c1)CCCC2C#N.Cl` (centres undefined): the “Effective oral dose inhibiting gastric erosions” value in the experiment on Rattus norvegicus [1] was 100 mg/kg. Moreover, the inhibition in vivo at 30 mg/kg in the experiment with Rattus norvegicus [2] is below 70%. Consider `Cc1cnc2c(c1)C(C)CCC2C(N)=S.Cl` (centres undefined), for which the “Effective oral dose inhibiting gastric erosions” value in the experiment with Rattus norvegicus [1] was found to be 30 mg/kg. Further, the inhibition entry in the experiment on Rattus norvegicus [3] is “Active”.

For the compound `Cc1cnc2c(c1)CCCC2C(N)=S.Cl` (centres undefined) [TIQUINAMIDE HYDROCHLORIDE], the “Effective oral dose inhibiting gastric erosions” value with Rattus norvegicus [1] was 10 mg/kg. Also, in the experiment on Rattus norvegicus [3], the inhibition result is “Active”. `CNC(=S)C1CCCc2c1ncc1c2CCCC1` (centres undefined): in the experiment on Rattus norvegicus [1], the “Effective oral dose inhibiting gastric erosions” value was 100 mg/kg. The inhibition result in the experiment on Rattus norvegicus [2] was “inactive”. Turning to `Cc1cnc2c(c1)CCC(C)(C)C2C(N)=S.Cl` (centres undefined), the “Effective oral dose inhibiting gastric erosions” value in the experiment with Rattus norvegicus [1] was 100 mg/kg. For the same compound, the inhibition entry with Rattus norvegicus [2] is “inactive”. As for `NC(=S)c1cccc2c1NCCC2`, the inhibition entry with Rattus norvegicus [2] was “inactive”. For the compound `NC(=O)C1CCCc2ccc(-c3ccccc3)nc21` (centres undefined), the “Effective oral dose inhibiting gastric erosions” value with Rattus norvegicus [1] is 100 mg/kg.

With `Cc1cc(-c2ccccc2)c2c(n1)C(C(N)=S)CCC2` (centres undefined), the inhibition result with Rattus norvegicus [2] was “inactive”. For `CCCCc1ccc2c(n1)C(C(N)=S)CCC2` (centres undefined), in the experiment on Rattus norvegicus [1], the “Effective oral dose inhibiting gastric erosions” value amounted to 100 mg/kg. The inhibition in vivo at 30 mg/kg with Rattus norvegicus [2] is below 70%. Consider `NC(=S)c1cccc2cccnc12`, for which the inhibition entry in the experiment with Rattus norvegicus [3] is “Active”. For `CC(C)(C)c1ccc2c(n1)C(C(N)=S)CCC2` (centres undefined), the “Effective oral dose inhibiting gastric erosions” value in the experiment with Rattus norvegicus [1] amounted to 30 mg/kg. For the same compound, the inhibition result with Rattus norvegicus [2] is “inactive”. For the compound `Cl.NC(=S)C1CCc2cc3c(nc21)CCC3` (centres undefined), the “Effective oral dose inhibiting gastric erosions” value in the experiment on Rattus norvegicus [1] was 100 mg/kg. The inhibition in vivo at 30 mg/kg with Rattus norvegicus [2] was below 70%.

Turning to `Cc1cnc2c(c1)CC(C)CC2C(N)=S.Cl` (centres undefined), the “Effective oral dose inhibiting gastric erosions” value with Rattus norvegicus [1] came out at 10 mg/kg. Besides, the inhibition in vivo at 30 mg/kg in the experiment on Rattus norvegicus [2] is above 70%. As to `Cl.NC(=S)C1CCCCc2cc3c(nc21)CCCCC3` (centres undefined), the “Effective oral dose inhibiting gastric erosions” value in the experiment on Rattus norvegicus [1] came to 100 mg/kg. In addition, the inhibition entry with Rattus norvegicus [2] is “inactive”.

On to `Cl.NC(=S)C1CCCc2cc3ccccc3nc21` (centres undefined), for which the “Effective oral dose inhibiting gastric erosions” value in the experiment with Rattus norvegicus [1] was determined as 30 mg/kg. Moreover, the inhibition entry in the experiment on Rattus norvegicus [2] is “inactive”. For `CNC(=S)C1(C(=S)NC)CCCc2cccnc21.Cl` the same measures were 100 mg/kg and “inactive”. As for `Cc1cc(C)c2c(n1)C(C(N)=S)CCC2` (centres undefined), the inhibition in vivo at 30 mg/kg with Rattus norvegicus [2] was below 70%. Consider `Cc1cnc2c(c1)CCCC2C(=S)NCCCc1ccccc1.Cl` (centres undefined), for which the “Effective oral dose inhibiting gastric erosions” value in the experiment with Rattus norvegicus [1] worked out at 100 mg/kg. Also, in the experiment on Rattus norvegicus [2], the inhibition result is “inactive”. `Cc1cnc2c(c1)CCCC2c1nc(C)cs1.Cl` (centres undefined): in the experiment on Rattus norvegicus [1], the “Effective oral dose inhibiting gastric erosions” value stood at 100 mg/kg. In the experiment with Rattus norvegicus [2], the inhibition entry is “inactive”. As for `CCc1ccc2c(n1)C(C(N)=S)CCC2` (centres undefined), in the experiment on Rattus norvegicus [2], the inhibition in vivo at 30 mg/kg is below 70%. On to `Cc1cnc2c(c1)CCCC2(C)C(N)=S.Cl` (centres undefined), for which, in the experiment on Rattus norvegicus [1], the “Effective oral dose inhibiting gastric erosions” value came to 100 mg/kg. In the experiment on Rattus norvegicus [2], the inhibition result is “inactive”. `CC(=O)OC1(C(N)=S)CCCc2cc(C)cnc21` (centres undefined): the inhibition entry in the experiment with Rattus norvegicus [2] was “inactive”. In the case of `Cc1cnc2c(c1)CCC2C(N)=S.Cl` (centres undefined), in the experiment with Rattus norvegicus [1], the “Effective oral dose inhibiting gastric erosions” value was found to be 30 mg/kg. The inhibition entry with Rattus norvegicus [2] was “inactive”. For `CNC(=S)C1(OC)CCCc2cc(C)cnc21` (centres undefined), the inhibition entry in the experiment with Rattus norvegicus [2] was “inactive”. Turning to `N#CC1CCCc2cccnc21` (centres undefined), the inhibition in vivo at 30 mg/kg in the experiment with Rattus norvegicus [2] was below 70%. For the compound `Cc1cnc2c(c1)CCCC2C(=S)Nc1ccccc1` (centres undefined), the “Effective oral dose inhibiting gastric erosions” value with Rattus norvegicus [1] came to 100 mg/kg. Besides, in the experiment on Rattus norvegicus [2], the inhibition entry was “inactive”.

For the compound `NC(=S)Cc1ccc2c(n1)CCCC2`, the “Effective oral dose inhibiting gastric erosions” value with Rattus norvegicus [1] turned out to be 30 mg/kg. In addition, the inhibition result in the experiment with Rattus norvegicus [2] was “inactive”. As to `NC(=S)C1CCCc2cc3c(nc21)CCCCC3` (centres undefined), in the experiment with Rattus norvegicus [1], the “Effective oral dose inhibiting gastric erosions” value came out at 30 mg/kg. In addition, in the experiment with Rattus norvegicus [2], the inhibition in vivo at 30 mg/kg is below 70%. For `Cl.NC(=S)C1CCCc2ccc(-c3ccccc3)nc21` (centres undefined), the “Effective oral dose inhibiting gastric erosions” value with Rattus norvegicus [1] turned out to be 30 mg/kg. The inhibition entry in the experiment with Rattus norvegicus [2] is “inactive”. Consider `Cc1cnc2c(c1)CCCC2C(=S)NCc1ccccc1.Cl` (centres undefined), for which, in the experiment on Rattus norvegicus [1], the “Effective oral dose inhibiting gastric erosions” value was 100 mg/kg. Besides, in the experiment with Rattus norvegicus [2], the inhibition result is “inactive”. With `N#CC1CCCc2ccc(-c3ccccc3)nc21` (centres undefined), in the experiment with Rattus norvegicus [1], the “Effective oral dose inhibiting gastric erosions” value was 100 mg/kg. Besides, the inhibition entry in the experiment on Rattus norvegicus [2] is “inactive”. `CNC(=S)C1CCCc2cc(C)cnc21` (centres undefined): in the experiment with Rattus norvegicus [1], the “Effective oral dose inhibiting gastric erosions” value came out at 30 mg/kg. The inhibition in vivo at 30 mg/kg with Rattus norvegicus [2] was below 10%. For the compound `CNC(=S)C1CCCc2cccnc21.Cl` (centres undefined), the “Effective oral dose inhibiting gastric erosions” value in the experiment on Rattus norvegicus [1] came to 3 mg/kg. The inhibition result in the experiment with Rattus norvegicus [3] is “Active”. Turning to `CC1CNC2C(CCCC2C(N)=S)C1` (centres undefined), the inhibition result with Rattus norvegicus [2] is “inactive”. Take `Cc1cnc2c(c1)CCCC2C(N)=O` (centres undefined): the “Effective oral dose inhibiting gastric erosions” value in the experiment on Rattus norvegicus [1] amounted to 100 mg/kg. For the compound `Cc1cc2c([n+]([O-])c1)C(C(N)=S)CCC2` (centres undefined), the “Effective oral dose inhibiting gastric erosions” value in the experiment with Rattus norvegicus [1] was determined as 100 mg/kg. In addition, in the experiment with Rattus norvegicus [2], the inhibition result is “inactive”. Consider `Cl.NC(=S)C1CCCc2cccnc21` (centres undefined), for which the “Effective oral dose inhibiting gastric erosions” value with Rattus norvegicus [1] was determined as 3 mg/kg. Moreover, the inhibition result in the experiment on Rattus norvegicus [3] was “Active”. As for `CNC(=S)C1CCCc2cc3ccccc3nc21` (centres undefined), in the experiment with Rattus norvegicus [2], the inhibition in vivo at 30 mg/kg was below 10%. In the case of `Cc1ccc2c(n1)C(C(N)=S)CCC2` (centres undefined), the “Effective oral dose inhibiting gastric erosions” value in the experiment with Rattus norvegicus [1] turned out to be 10 mg/kg. Also, in the experiment with Rattus norvegicus [3], the inhibition result is “Active”. Turning to `NC(=S)C1CCCc2c1ncc1c2CCCC1` (centres undefined), the “Effective oral dose inhibiting gastric erosions” value in the experiment with Rattus norvegicus [1] worked out at 30 mg/kg. Moreover, in the experiment with Rattus norvegicus [2], the inhibition in vivo at 30 mg/kg is below 70%. As to `CCCCNC(=S)C1CCCc2cc(C)cnc21.Cl` (centres undefined), the “Effective oral dose inhibiting gastric erosions” value in the experiment on Rattus norvegicus [1] came out at 100 mg/kg. Moreover, in the experiment with Rattus norvegicus [2], the inhibition in vivo at 30 mg/kg is below 70%. In the case of `Cl.NC(=S)C1CCCc2cc3c(nc21)CCC3` (centres undefined), the “Effective oral dose inhibiting gastric erosions” value in the experiment with Rattus norvegicus [1] came to 100 mg/kg. Besides, the inhibition in vivo at 30 mg/kg with Rattus norvegicus [2] was below 70%. In the case of `CNC(=S)C1(C(=S)NC)CCc2cc(C)cnc21`, in the experiment on Rattus norvegicus [1], the “Effective oral dose inhibiting gastric erosions” value worked out at 100 mg/kg. The inhibition result in the experiment on Rattus norvegicus [2] is “inactive”.

On to `NC(=S)C1CCCc2cc3c(nc21)CCCC3` (centres undefined), for which, in the experiment with Rattus norvegicus [1], the “Effective oral dose inhibiting gastric erosions” value worked out at 100 mg/kg. Moreover, the inhibition in vivo at 30 mg/kg with Rattus norvegicus [2] is below 70%. Turning to `Cc1cnc2c(c1C)CCCC2C(N)=S` (centres undefined), in the experiment on Rattus norvegicus [2], the inhibition in vivo at 30 mg/kg is above 70%. Consider `Cc1cnc2c(c1)CCCC2C1=NCCN1.Cl` (centres undefined), for which the “Effective oral dose inhibiting gastric erosions” value in the experiment with Rattus norvegicus [1] was 100 mg/kg. Also, the inhibition entry in the experiment on Rattus norvegicus [2] is “inactive”. The like results for `CNC(=S)C1(C(=S)NC)CCc2cc3ccccc3nc21.Cl` were, in that order, 100 mg/kg and “inactive”.
